Measurements reported in US10039760B2, “Method of using diketopiperazines and composition containing them” (Ampio Pharmaceuticals, Inc., priority 2000, dated 2018).

Tested on: NHBE 6122 normal human bronchial epithelial cells
Assay: PAF-induced release of IL-8 by NHBE 6122 cells (IL-8 ELISA of cell supernatants)
Type: cell-based
Method: NHBE 6122 normal human bronchial epithelial cells (Clonetics, San Diego, Calif.) were added to a 24-well tissue culture plate (Falcon, now BD Biosciences, Franklin Lakes, […]) in BEGM (bronchial epithelial growth medium; Clonetics) containing epinephrine (complete medium) at 37° C. and 5% CO2. After adhering, the cells were washed twice with BEGM medium without epinephrine. They were then incubated in complete medium or in complete medium containing 20 μM 3-methyl-2,5-diketopiperazine-6-acetic acid (DA-DKP; preparation described in Example 1, 5; stock solution made in HEPES buffered saline (HBSS; Clonetics) at 4 mM for 20 minutes at 37° C. and 5% CO2. Platelet activating factor (PAF; Sigma, St. Louis, Mo.) dissolved in dimethylsulfoxide (DMSO; tissue culture grade; Sigma, St. Louis, Mo.) was then added to a final concentration of 100 nM or 500 nM, and the cells were incubated for an additional 6 hours at 37° C. and 5% CO2. Medium containing DMSO and HBSS was used as a control.
The concentration of IL-8 in cell supernatants was determined by an ELISA using human IL-8 matched pair antibodies (Endogen, Cambridge, Mass.). The ELISA was performed using an ELISA kit from Endogen, Cambridge, Mass. according to the manufacturer's instructions with the following exceptions: (1) coating antibody at 1 μg/ml; (2) detecting antibody 30 ng/ml; StrepAvidin HRP diluted 1:32,000.

1-O-alkyl-2-acetyl-sn-glycerol-3-phosphorylcholine [PAF, reference compound]
IL-8 (Table 1, PAF 100 nM alone, 20,000 cells/well, 6 hours): 1094.68 pg/mL
IL-8 (Table 2, PAF 500 nM alone, 20,000 cells/well, 6 hours): 887.87 pg/mL
IL-8 (Table 3, PAF 100 nM alone, cells split to 5,000 cells/well four days prior, grown to 70% confluence): 355.36 pg/mL

CC1NC(=O)C(CC(=O)O)NC1=O (stereo not shown) [DA-DKP, 3-methyl-2,5-diketopiperazine-6-acetic acid]
IL-8 (Table 1, 20 min pre-incubation with DA-DKP 20 μM, then PAF 100 nM for 6 hours, 20,000 cells/well): 714.91 pg/mL
IL-8 (Table 1, DA-DKP 20 μM alone, no PAF, 20,000 cells/well, 6 hours): 803.11 pg/mL
IL-8 (Table 2, 20 min pre-incubation with DA-DKP 20 μM, then PAF 500 nM for 6 hours, 20,000 cells/well): 542.5 pg/mL
IL-8 (Table 2, DA-DKP 20 μM alone, no PAF, 20,000 cells/well, 6 hours): 837.84 pg/mL
IL-8 (Table 3, DA-DKP 20 μM alone, no PAF, cells split to 5,000 cells/well four days prior, grown to 70% confluence): 184.86 pg/mL
IL-8 (Table 3, pre-incubation with DA-DKP 20 μM, then PAF 100 nM, cells split to 5,000 cells/well four days prior, grown to 70% confluence): 201.93 pg/mL
IL-8 secretion induced by PAF (result in words, pre-incubation of the cells with the diketopiperazine): inhibited
